Columns and labels:
[1] = molecular target: T1, Interferon regulatory factor 3 (Homo sapiens, UniProt Q14653); test: Induction of IRF3 pathway in STING knockout human THP1 cells measured after 20 hrs by luciferase reporter gene assay
T1 sequence (Q14653 whole entry): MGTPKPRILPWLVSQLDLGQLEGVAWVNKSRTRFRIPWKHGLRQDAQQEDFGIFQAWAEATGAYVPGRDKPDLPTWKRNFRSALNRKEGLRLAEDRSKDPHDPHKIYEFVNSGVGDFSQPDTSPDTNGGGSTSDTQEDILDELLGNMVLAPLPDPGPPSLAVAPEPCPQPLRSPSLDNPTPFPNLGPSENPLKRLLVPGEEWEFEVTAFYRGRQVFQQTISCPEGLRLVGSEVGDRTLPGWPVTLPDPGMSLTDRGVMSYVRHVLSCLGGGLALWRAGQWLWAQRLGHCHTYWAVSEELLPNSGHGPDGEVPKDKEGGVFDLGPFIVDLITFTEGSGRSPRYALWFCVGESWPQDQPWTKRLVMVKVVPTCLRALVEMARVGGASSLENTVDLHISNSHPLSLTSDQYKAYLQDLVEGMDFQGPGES

[2] = Agonist activity at STING in human THP1 cells assessed as stimulation of IRF3 pathway measured after 20 hrs by luciferase reporter gene assay

Row | Structure (SMILES) | EC50 [1] | EC50 [2]
1 | CCn1nc(C)cc1C(=O)Nc1nc2cc(C(N)=O)cc(OC)c2n1CCCN | > 100 µM | > 100 µM
2 | CCCn1c(NC(=O)CCc2ccccc2)nc2cc(C(N)=O)cc(OC)c21 | > 100 µM | > 100 µM
3 | CCn1nc(C)cc1C(=O)Nc1nc2cc(C(N)=O)cnc2n1CCCNC(=O)OC(C)(C)C | > 100 µM | > 100 µM
4 | CCn1nc(C)cc1C(=O)Nc1nc2cc(C(N)=O)ccc2n1CCCNC(=O)OCc1ccccc1 | > 100 µM | > 100 µM
5 | COc1cc(C(N)=O)cc2nc(NC(=O)c3ccccn3)n(CCCCNC(=O)OC(C)(C)C)c12 | > 100 µM | –
6 | COc1cc(C(N)=O)cc2nc(NC(=O)C3CCCN3C)n(CCCNC(=O)OCc3ccccc3)c12 (centres undefined) | > 100 µM | > 100 µM
7 | CCn1nc(C)cc1C(=O)Nc1nc2cccc(OC)c2n1CCCNC(=O)OCc1ccccc1 | > 100 µM | > 100 µM
8 | CCCn1c(NC(=O)c2ccc3ccccc3n2)nc2cc(C(N)=O)cc(OC)c21 | > 100 µM | > 100 µM
9 | CCn1nc(C)cc1C(=O)Nc1nc2cc(C(=O)OC)cnc2n1CCCNC(=O)OC(C)(C)C | > 100 µM | > 100 µM
10 | CCn1nc(C)cc1C(=O)Nc1nc2cc(C(N)=O)cc(OC)c2n1CCCNC(=O)OC(C)(C)C | > 100 µM | –
11 | CCn1nc(C)cc1C(=O)Nc1nc2cc(C(N)=O)cc(OC)c2n1CCCNC(=O)OCc1ccccc1 | > 100 µM | 0.872 µM
12 | CCn1nccc1C(=O)Nc1nc2cc(C(N)=O)cc(OC)c2n1CCCNC(=O)OCc1ccccc1 | > 100 µM | > 100 µM
13 | COc1cc(C(N)=O)cc2nc(NC(=O)c3ccnn3C)n(CCCNC(=O)OCc3ccccc3)c12 | > 100 µM | > 100 µM
14 | CCCn1c(NC(=O)c2nccc3ccccc23)nc2cc(C(N)=O)cc(OC)c21 | > 100 µM | > 100 µM
15 | CCCn1c(NC(=O)c2cc(C)nn2CC)nc2cc(C(=O)OC)cc(OC)c21 | > 100 µM | > 100 µM
16 | COc1cc(C(N)=O)cc2nc(NC(=O)c3cccnn3)n(CCCNC(=O)OCc3ccccc3)c12 | > 100 µM | –
17 | COc1cc(C(N)=O)cc2nc(NC(=O)c3ccccn3)n(CCCNC(=O)OCc3ccccc3)c12 | > 100 µM | –
18 | COc1cc(C(N)=O)cc2nc(NC(=O)c3ccc4ccccc4n3)n(CCCNC(=O)OCc3ccccc3)c12 | > 100 µM | > 100 µM
19 | CCn1nc(C)cc1C(=O)Nc1nc2cc(C(=O)OC)cc(OC)c2n1CCCNC(=O)OCc1ccccc1 | 27.6 µM | 20.7 µM
20 | CCCn1c(NC(=O)c2cc3ccccc3n2C)nc2cc(C(N)=O)cc(OC)c21 | > 100 µM | > 100 µM
21 | CCCn1c(NC(=O)c2cncn2C)nc2cc(C(N)=O)cc(OC)c21 | > 100 µM | > 100 µM
22 | CCCn1c(NC(=O)c2ccnn2CC)nc2cc(C(N)=O)cc(OC)c21 | > 100 µM | > 100 µM
23 | CCCn1c(NC(=O)c2ccccn2)nc2cc(C(N)=O)cc(OC)c21 | > 100 µM | > 100 µM

Row | Structure (SMILES) | EC50 [1] | EC50 [2]
24 | CCCn1c(NC(=O)c2cc(C)nn2CC)nc2cccc(OC)c21 | > 100 µM | > 100 µM
25 | CCCn1c(NC(=O)c2cc(C)nn2CC)nc2cc(C(N)=O)ccc21 | > 100 µM | –
26 | CCn1nc(C)cc1C(=O)Nc1nc2cc(C(=O)O)cnc2n1CCCNC(=O)OC(C)(C)C | > 100 µM | > 100 µM
27 | NC(=O)c1cc(OCCCN2CCOCC2)c2c(c1)nc(NC(=O)c1cccnn1)n2CCCNC(=O)OCc1ccccc1 | > 100 µM | > 100 µM
28 | NC(=O)c1cc(OCCCN2CCOCC2)c2c(c1)nc(NC(=O)c1ccccn1)n2CCCNC(=O)OCc1ccccc1 | > 100 µM | > 100 µM
29 | COCCCOc1cc(C(N)=O)cc2nc(NC(=O)c3cccnn3)n(CCCNC(=O)OCc3ccccc3)c12 | > 100 µM | > 100 µM
30 | COCCCOc1cc(C(N)=O)cc2nc(NC(=O)c3ccccn3)n(CCCNC(=O)OCc3ccccc3)c12 | > 100 µM | –
31 | COc1cc(C(N)=O)cc2nc(NC(=O)c3cccnn3)n(CCCCNC(=O)OC(C)(C)C)c12 | > 100 µM | –
32 | CCn1nc(C)cc1C(=O)Nc1nc2cc(C(N)=O)cc(OC)c2n1CCCNC(=O)CCc1cc(OC)c(OC)c(OC)c1 | > 100 µM | > 100 µM
33 | COc1cc(C(N)=O)cc2nc(NC(=O)c3cncn3C)n(CCCNC(=O)OCc3ccccc3)c12 | > 100 µM | > 100 µM
34 | COc1cc(C(N)=O)cc2nc(NC(=O)CCc3ccccc3)n(CCCNC(=O)OCc3ccccc3)c12 | > 100 µM | > 100 µM
35 | COc1cc(C(N)=O)cc2nc(NC(=O)c3cccn3C)n(CCCNC(=O)OCc3ccccc3)c12 | > 100 µM | > 100 µM
36 | COc1cc(C(N)=O)cc2nc(NC(=O)C3CCN(C)CC3)n(CCCNC(=O)OCc3ccccc3)c12 | > 100 µM | > 100 µM
37 | CCn1nc(C)cc1C(=O)Nc1nc2cc(C(N)=O)cc(OC)c2n1CCCNC(=O)C(C)(C)C | > 100 µM | 27.5 µM
38 | CCn1nc(C)cc1C(=O)Nc1nc2cc(C(N)=O)cc(OC)c2n1CCCNC(=O)CCc1cccnc1 | > 100 µM | 39.5 µM
39 | CCn1nc(C)cc1C(=O)Nc1nc2cc(C(N)=O)cc(OCCCN3CCOCC3)c2n1CCCNC(=O)OCc1ccccc1 | > 100 µM | –
40 | CCn1nc(C)cc1C(=O)Nc1nc2cc(C(N)=O)cc(OC)c2n1CCCNC(=O)CCC(=O)O | > 100 µM | > 100 µM
41 | CCn1nc(C)cc1C(=O)Nc1nc2cc(C(N)=O)cc(OC)c2n1CCCNC(=O)CCC(=O)OC | > 100 µM | > 100 µM
42 | CCCn1c(NC(=O)c2cccnn2)nc2cc(C(N)=O)cc(OC)c21 | > 100 µM | > 100 µM
43 | COc1cc(C(N)=O)cc2nc(NC(=O)c3nccc4ccccc34)n(CCCNC(=O)OCc3ccccc3)c12 | > 100 µM | > 100 µM
44 | CCCn1c(NC(=O)c2ccnn2C)nc2cc(C(N)=O)cc(OC)c21 | > 100 µM | > 100 µM
45 | CCn1nc(C)cc1C(=O)Nc1nc2cc(C(N)=O)cc(OC)c2n1CCCNC(=O)c1ccccc1 | > 100 µM | > 100 µM
46 | COc1cc(C(N)=O)cc2nc(NC(=O)c3cc4ccccc4n3C)n(CCCNC(=O)OCc3ccccc3)c12 | > 100 µM | > 100 µM

Source: BindingDB's records for doi:10.1021/acs.jmedchem.9b01567 (Peking Union Medical College, 2020)
